pEC50: −log10 of the molar value.
How the values were obtained:
[1] = molecular target: human recombinant CB1 receptor (Homo sapiens, UniProt P21554); assay: biochemical; assay type: binding
[2] = tested on: H-460 human lung cell lines; assay: Cytotoxicity to H-460 cells; assay type: cell-based; conditions: all tested concentrations (up to 20 µg/mL)

human recombinant CB1 receptor, sequence (P21554 whole entry): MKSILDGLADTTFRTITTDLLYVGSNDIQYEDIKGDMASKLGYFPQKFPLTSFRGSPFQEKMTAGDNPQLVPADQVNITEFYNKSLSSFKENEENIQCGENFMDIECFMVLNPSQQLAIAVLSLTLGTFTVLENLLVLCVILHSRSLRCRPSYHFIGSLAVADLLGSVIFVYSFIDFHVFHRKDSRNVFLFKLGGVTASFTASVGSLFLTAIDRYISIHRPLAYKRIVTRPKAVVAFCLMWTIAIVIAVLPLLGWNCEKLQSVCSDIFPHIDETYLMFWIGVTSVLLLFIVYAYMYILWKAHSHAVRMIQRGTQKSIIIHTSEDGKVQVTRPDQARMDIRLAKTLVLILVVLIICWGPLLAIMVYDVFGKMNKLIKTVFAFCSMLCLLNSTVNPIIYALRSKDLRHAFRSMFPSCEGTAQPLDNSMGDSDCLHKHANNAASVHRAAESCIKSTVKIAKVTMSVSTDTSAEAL

## CCCCCCCCCCCCC/C=C/CCC(=O)N(C)[C@H](CO)COC [compound 3, serinolamide A]
[1]
  pEC50: 5.64

## C=C(CCCCCCCCCCCCC)CCCC(=O)O/C=C\COC(C)=O [compound 4, propenediester]
[2]
  cytotoxicity (in words): inactive
[1]; radioligand binding assay
  affinity for the CB1 cannabinoid receptor (in words): completely inactive
